{"source": "PubChem BioAssay (NCI)", "assay_in_all_cases": "inhibition of tumour cell growth, NCI panel, 48 h", "key": {"SN12C renal": {"system": "SN12C renal"}, "COLO 205 colon": {"system": "COLO 205 colon"}, "SK-MEL-5 melanoma": {"system": "SK-MEL-5 melanoma"}, "NCI-H226 lung": {"system": "NCI-H226 lung"}, "TK-10 renal": {"system": "TK-10 renal"}, "OVCAR-4 ovarian": {"system": "OVCAR-4 ovarian"}, "M14 melanoma": {"system": "M14 melanoma"}, "LOX IMVI melanoma": {"system": "LOX IMVI melanoma"}, "786-0 renal": {"system": "786-0 renal"}, "SK-MEL-2 melanoma": {"system": "SK-MEL-2 melanoma"}, "CCRF-CEM leukemia": {"system": "CCRF-CEM leukemia"}, "CAKI-1 renal": {"system": "CAKI-1 renal"}, "A549 NSCLC": {"system": "A549 NSCLC"}, "RXF 393 renal": {"system": "RXF 393 renal"}, "MDA-MB-231 breast": {"system": "MDA-MB-231 breast"}, "SF-539 CNS": {"system": "SF-539 CNS"}, "BT-549 breast": {"system": "BT-549 breast"}, "SF-295 CNS": {"system": "SF-295 CNS"}, "UACC-62 melanoma": {"system": "UACC-62 melanoma"}, "OVCAR-3 ovarian": {"system": "OVCAR-3 ovarian"}, "OVCAR-5 ovarian": {"system": "OVCAR-5 ovarian"}, "IGROV1 ovarian": {"system": "IGROV1 ovarian"}, "HT29 colon": {"system": "HT29 colon"}, "NCI-H460 lung": {"system": "NCI-H460 lung"}, "SK-OV-3 ovarian": {"system": "SK-OV-3 ovarian"}, "HCC-2998 colon": {"system": "HCC-2998 colon"}, "MOLT-4 leukemia": {"system": "MOLT-4 leukemia"}, "SR leukemia": {"system": "SR leukemia"}, "HL-60(TB) leukemia": {"system": "HL-60(TB) leukemia"}, "UACC-257 melanoma": {"system": "UACC-257 melanoma"}}, "note": "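Step 1: Grow cells in 96-well plates. Step 2: Expose to compound for 48 hours at 5 concentrations. Step 3: Interpolate endpoints linearly; if unreached, use highest concentration. Here, GI50 denotes the concentration required for 50% inhibition of growth. TGI marks complete inhibition of growth.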"}
{"compound": "N#Cc1cccc(/C(N)=N/C(N)=N/c2nc3ccccc3s2)c1", "values": [{"measurement": "TGI", "setting": "SN12C renal", "value": "> 100000", "unit": "nM"}, {"measurement": "GI50", "setting": "COLO 205 colon", "value": 1020, "unit": "nM"}, {"measurement": "TGI", "setting": "COLO 205 colon", "value": "> 100000", "unit": "nM"}, {"measurement": "GI50", "setting": "SK-MEL-5 melanoma", "value": 699, "unit": "nM"}, {"measurement": "TGI", "setting": "SK-MEL-5 melanoma", "value": "> 28200", "unit": "nM"}, {"measurement": "GI50", "setting": "NCI-H226 lung", "value": 1220, "unit": "nM"}, {"measurement": "TGI", "setting": "NCI-H226 lung", "value": 73800, "unit": "nM"}, {"measurement": "GI50", "setting": "TK-10 renal", "value": 9170, "unit": "nM"}, {"measurement": "TGI", "setting": "TK-10 renal", "value": "> 92400", "unit": "nM"}, {"measurement": "GI50", "setting": "OVCAR-4 ovarian", "value": 2740, "unit": "nM"}, {"measurement": "TGI", "setting": "OVCAR-4 ovarian", "value": "> 100000", "unit": "nM"}, {"measurement": "GI50", "setting": "M14 melanoma", "value": 513, "unit": "nM"}, {"measurement": "TGI", "setting": "M14 melanoma", "value": "> 100000", "unit": "nM"}, {"measurement": "GI50", "setting": "LOX IMVI melanoma", "value": 614, "unit": "nM"}, {"measurement": "TGI", "setting": "LOX IMVI melanoma", "value": "> 100000", "unit": "nM"}, {"measurement": "GI50", "setting": "786-0 renal", "value": 733, "unit": "nM"}, {"measurement": "TGI", "setting": "786-0 renal", "value": "> 77700", "unit": "nM"}, {"measurement": "GI50", "setting": "SK-MEL-2 melanoma", "value": 1330, "unit": "nM"}, {"measurement": "TGI", "setting": "SK-MEL-2 melanoma", "value": "> 60700", "unit": "nM"}, {"measurement": "GI50", "setting": "CCRF-CEM leukemia", "value": 551, "unit": "nM"}, {"measurement": "TGI", "setting": "CCRF-CEM leukemia", "value": "> 100000", "unit": "nM"}, {"measurement": "GI50", "setting": "CAKI-1 renal", "value": 538, "unit": "nM"}, {"measurement": "TGI", "setting": "CAKI-1 renal", "value": "> 34300", "unit": "nM"}, {"measurement": "GI50", "setting": "A549 NSCLC", "value": 3480, "unit": "nM"}, {"measurement": "TGI", "setting": "A549 NSCLC", "value": "> 100000", "unit": "nM"}, {"measurement": "GI50", "setting": "RXF 393 renal", "value": 388, "unit": "nM"}, {"measurement": "TGI", "setting": "RXF 393 renal", "value": 2420, "unit": "nM"}, {"measurement": "GI50", "setting": "MDA-MB-231 breast", "value": 2640, "unit": "nM"}, {"measurement": "TGI", "setting": "MDA-MB-231 breast", "value": "> 100000", "unit": "nM"}, {"measurement": "GI50", "setting": "SF-539 CNS", "value": 457, "unit": "nM"}, {"measurement": "TGI", "setting": "SF-539 CNS", "value": 4050, "unit": "nM"}, {"measurement": "GI50", "setting": "BT-549 breast", "value": 1030, "unit": "nM"}, {"measurement": "TGI", "setting": "BT-549 breast", "value": "> 59300", "unit": "nM"}, {"measurement": "GI50", "setting": "SF-295 CNS", "value": 504, "unit": "nM"}, {"measurement": "TGI", "setting": "SF-295 CNS", "value": "> 41000", "unit": "nM"}, {"measurement": "GI50", "setting": "UACC-62 melanoma", "value": 418, "unit": "nM"}, {"measurement": "TGI", "setting": "UACC-62 melanoma", "value": "> 71500", "unit": "nM"}, {"measurement": "GI50", "setting": "OVCAR-3 ovarian", "value": 508, "unit": "nM"}, {"measurement": "TGI", "setting": "OVCAR-3 ovarian", "value": "> 23200", "unit": "nM"}, {"measurement": "GI50", "setting": "OVCAR-5 ovarian", "value": 3650, "unit": "nM"}, {"measurement": "TGI", "setting": "OVCAR-5 ovarian", "value": "> 100000", "unit": "nM"}, {"measurement": "GI50", "setting": "IGROV1 ovarian", "value": 826, "unit": "nM"}, {"measurement": "TGI", "setting": "IGROV1 ovarian", "value": "> 100000", "unit": "nM"}, {"measurement": "GI50", "setting": "HT29 colon", "value": 450, "unit": "nM"}, {"measurement": "TGI", "setting": "HT29 colon", "value": "> 100000", "unit": "nM"}, {"measurement": "GI50", "setting": "NCI-H460 lung", "value": 479, "unit": "nM"}, {"measurement": "TGI", "setting": "NCI-H460 lung", "value": "> 100000", "unit": "nM"}, {"measurement": "GI50", "setting": "SK-OV-3 ovarian", "value": 1790, "unit": "nM"}, {"measurement": "TGI", "setting": "SK-OV-3 ovarian", "value": 40700, "unit": "nM"}, {"measurement": "GI50", "setting": "HCC-2998 colon", "value": 2850, "unit": "nM"}, {"measurement": "TGI", "setting": "HCC-2998 colon", "value": "> 100000", "unit": "nM"}, {"measurement": "GI50", "setting": "MOLT-4 leukemia", "value": 657, "unit": "nM"}, {"measurement": "TGI", "setting": "MOLT-4 leukemia", "value": "> 25600", "unit": "nM"}, {"measurement": "GI50", "setting": "SR leukemia", "value": 437, "unit": "nM"}, {"measurement": "TGI", "setting": "SR leukemia", "value": "> 100000", "unit": "nM"}, {"measurement": "GI50", "setting": "HL-60(TB) leukemia", "value": 311, "unit": "nM"}, {"measurement": "GI50", "setting": "UACC-257 melanoma", "value": "> 100000", "unit": "nM"}, {"measurement": "TGI", "setting": "UACC-257 melanoma", "value": "> 100000", "unit": "nM"}]}
